Test results from patent US5589474A, “Dibenzothiazepinthione as antiviral agents” (Glaxo Wellcome Inc., priority 1991, dated 1996).

Experiments:
HIV [1] = experiment: HIV (in vitro) MT4 assay; assay type: cell-based; settings: Human immunodeficiency virus 1
HIV [2] = experiment: HeLa-CD4 plaque reduction assay (HIV in vitro); assay type: cell-based; settings: Human immunodeficiency virus 1

| IC50 (HIV [1]) | IC50 (HIV [2]) | Compound |
| --- | --- | --- |
| 3.3 µM | 15.4 µM | Fc1cccc2c1Sc1ccccc1NC2=S [8(iv), 4-Fluoro-10,11-dihydrobenzo[b,f][1,4]thiazepin-11-thione] |
| 9 µM | 5 µM | S=C1Nc2ccccc2Sc2ccccc21 [Example 3, 10,11-Dihydrodibenzo[b,f][1,4]thiazepin-11-thione] |
| 44.4 µM | 14.4 µM | O=[N+]([O-])c1ccc2c(c1)C(=S)Nc1ccccc1S2 [Example 6, 2-Nitro-10,11-dihydrodibenzo[b,f][1,4]thiazepin-11-thione] |
